Results as given in publication PMC10488391, “Membrane-Targeting Perylenylethynylphenols Inactivate Medically Important Coronaviruses via the Singlet Oxygen Photogeneration Mechanism” (Molecules, 2023).
Where two headings read alike, the source gives them in different places.

What was measured:
[1] = Singlet oxygen generation quantum yield (SOSG fluorescence); assay type: physicochemical; conditions: in methanol, illumination 430–450 nm, 5.5 mW/cm^2, reference PS C1T11
Experimental: The ROS generation rate was estimated using the spectrofluorimetric method, based on the fluorescense changes of Singlet Oxigen Sensor Green (SOSG®, Lumiprobe, Cockeysville, MD, USA) in methanol solution. Oxidation of SOSG by singlet oxygen results in peroxide formation enhancing SOSG fluorescence.
Spectrophotometric measurements were performed in a Qpod 2e thermostated cuvette holder (Quantum Northwest, Liberty Lake, WA, USA) at 25 °C and with magnetic stirring (500 rpm). Absorption spectra were recorded using a MayaPro spectrophotometer (Ocean Optics, Orlando, FL, USA) and a stabilized white light source with a SLS201L tungsten lamp (Thorlabs, Newton, NJ, USA). The fluorescence of SOSG was measured with a Flame CCD spectrometer (Ocean Optics, Orlando, FL, USA) in StripChart mode (530 nm), excitation of the SOSG fluorescence was carried out with a PLS-510 LED laser (InTop, St. Petersburg, Russia) in CW mode at the wavelength of 510 nm.
To study photosensitized ^1O2 generation, we used a white MCWHLP1 LED (Thorlabs, USA) with filters to limit the radiation to the 430–450 nm range (5.5 mW/cm^2). Illumination was uniform over the entire volume of the cuvette, to prevent artifacts associated with the diffusion of non-reacted components from entering into the illuminated volume of the cuvette. Illumination was performed in pulsed mode, with 1 s of illumination followed by 5 s of dark adaptation, during which the fluorescence spectrum of the photosensitizer-SOSG solution was recorded.
Singlet oxygen generation quantum yield for compounds 3a–3f in methanol was calculated according to Equation (1):(1) φΔ=φΔ0∗r/r^0(1−10^−A^0)/(1−10^−A), where r is the rate of SOSG fluorescence increase in solution of the photosensitizer (PS), A is the PS absorbance in the region of illumination, and index 0 represents reference PS (we used perylene compound C1T11 [65] with φΔ0=0.59 in methanol).

SARS-CoV-2 [2] = assay: Virus titer reduction assay; assay type: cell-based; conditions: for SI: SARS-CoV-2 EC50 and Vero cells CC50; for EC50: Severe acute respiratory syndrome coronavirus 2
[3] = Cytotoxicity assay (Cell Counting Kit-8); assay type: cell-based; conditions: African green monkey, Vero cells, confluent monolayer; 48 h at 37 °C in the dark; compounds 0–10 µM
Experimental: Vero cells were cultured for 24 h in 96-well plates to form a confluent monolayer, and then were treated with the tested compounds at concentrations of 0–10 µM. After 48 h of cultivation in the dark at 37 °C under 5% CO2, the cell culture medium was aspirated. The potential cytotoxicity of the tested derivatives was determined based on cell viability using Cell Counting Kit-8 (Dojindo Molecular Technologies, Munich, Germany) according to the manufacturer’s instructions (Figure 5A).

FIPV [4] = assay: Anti-FIPV activity in CRFK cells (plaque assay); assay type: cell-based, feline infectious peritonitis virus; conditions: Alphacoronavirus 1, normal lighting (preparation in daylight, cultivation in the dark)
[5] = Cytotoxicity to CRFK cells under normal lighting; assay type: cell-based; conditions: cat (Felis catus), CRFK cells (kidney cortex), confluent monolayer
Experimental: Furthermore, we investigated the mechanism of antiviral activity of perylenylethynylphenols using FIPV, another member of the Coronaviridae family, which is an important veterinary pathogen.
To determine the light-induced cytotoxicity of the compounds, CRFK cells were cultured in 96-well plates for 24 h to form a confluent monolayer and then treated with the tested compounds at concentrations ranging from 0 to 10 µM in daylight. Subsequently, cells treated with the compounds were irradiated with LEDs (465–480 nm, 30 mW/cm^2) for 10 min at RT (Figure 7A, top panel). As a negative control, CRFK cells were treated with the compounds in daylight and then incubated in the dark at RT for 10 min (Figure 7A, bottom panel). Subsequently, both irradiated and non-irradiated cell monolayers were incubated for 48 h in the dark at 37 °C. After incubation, the potential photocytotoxicity of the compounds was determined using Cell Counting Kit-8 (Dojindo Molecular Technologies, Munich, Germany) according to the manufacturer’s instructions.

SARS-CoV-2 [6] = assay: Virucidal (virus-inactivating) activity, plaque assay; assay type: cell-based; conditions: 10 µM; 120 min pre-incubation in the dark; starting titers 10^4, 10^6 and 10^7 PFU/mL
FIPV [7] = assay: Photodynamic inactivation of FIPV virions; assay type: cell-based, feline infectious peritonitis virus
Experimental: Considering that perylenylethynylphenols are potent ^1O2 photogenerators, we investigated their coronavirus inactivation activity after the irradiation of compound-pretreated FIPV with blue light (465–480 nm, with an approximate power density of 30 mW/cm^2; note: the 465–480 nm wavelength is close to the excitation maxima of perylenylethynylphenols). In this experiment, (i) compound 3a and the virus were mixed in daylight and irradiated with blue light for 10 min (Figure 7D, top panel), or (ii) the compound and virus were mixed in daylight and incubated in the dark for 10 min (Figure 7D, medium panel). Then, both samples (irradiated and non-irradiated) were incubated for 1 h at 37 °C in the dark, and the viability of FIPV was determined by a plaque assay. […] We speculate that the observed enhancement of antiviral (virus inactivation) activity of 3a is due to increased ^1O2 photogeneration during sample irradiation.
To completely eliminate the influence of daylight on the anti-FIPV activity of perylenylethynylphenols, we performed a parallel experiment in a dark room. In this experiment, all manipulations, including sample preparation and plaque assays, were performed under red light (624 ± 20 nm) (Figure 7D, bottom panel).
Virus in DMEM (titer of 10^6 PFU/mL) was mixed with 3a (0–10 µM) in a microtiter plate in daylight and irradiated for 10 min at RT with LEDs (465–480 nm) at an approximate power density of 30 mW/cm^2 (Figure 7D, top panel). As a negative control, the virus was mixed with 3a (0–10 µM) in daylight and incubated with the compound for 10 min in the dark at RT (Figure 7D, middle panel). Subsequently, both irradiated and non-irradiated virus samples were incubated in the dark at 37 °C for an additional 60 min. Viral titers were determined by plaque assays (also in daylight). […] The virus sample was mixed with 3a (0–10 µM), incubated at 37 °C for 60 min, and the viability of the virus was assessed by plaque assays (Figure 7D, bottom panel). […]

[8] = Interaction with liposomes (steady-state fluorescence); assay type: physicochemical; conditions: 10 µM in PBS; 520 nm; after the complete incubation period (3500 s)
Experimental: The affinity of 3a to lipid membranes was further confirmed using a liposomal (protein-free) membrane model system (Figure 6D,E). […] The kinetics of liposome penetration of 3a were measured as the steady-state fluorescence response at 520 nm, which reached maximal intensity of about 4 × 10^5 CPE after the complete incubation period (3500 s) (Figure 6E).
The samples’ steady-state fluorescence characteristics were measured in L-format using a Chronos DFD Fluorescence spectrometer (ISS, Baltimore, MD, USA) equipped with a 300 W Cermax xenon arc lamp (ISS, Baltimore, MD, USA), a concave holographic grating monochromator, and a PMT detector. The required amount of each sample was diluted in DMSO and measured in a 1-cm quartz cuvette, at a constant temperature of 25 °C. The resulting data were evaluated using Vinci software version 2 (ISS, Baltimore, MD, USA) and correlated to the utilized optical configuration.
The kinetics of the incorporation of compounds into liposome membrane models were determined using steady-state fluorescence spectroscopy at a constant excitation and emission wavelength, according to the corresponding sample excitation and emission maxima. We added 50 μL of LNP suspension to 10 µM of the analyte in PBS and monitored the increase in fluorescence intensity over the time range […].

PS cells = assay: Confocal microscopy of penetration into cellular membranes; assay type: cell-based, porcine; conditions: 10 µM
Experimental: Confocal microscopy was used to study the penetration of compound 3a into cellular membranes. PS cells were treated with 3a (10 µM) in a µ-Slide 8 Well (IbidiGmbH, Gräfelfing, Germany) in the dark for 60 min at 37 °C. The samples were analyzed for fluorescent signal distribution and intensity using a Leica SP8 confocal microscope (Leica, Wetzlar, Germany) as described previously.

[9] = Light-induced cytotoxicity (photocytotoxicity); assay type: cell-based; conditions: cat (Felis catus), CRFK cells, confluent monolayer; blue light 465–480 nm, 30 mW/cm^2, 10 min; then 48 h incubation; read-out: Cell viability of irradiated CRFK cells
[10] = parameters: method as in PMID 37339718; conditions: in methanol; cited from earlier work
[11] = SARS-CoV-2 in Vero cells, normalized log-transformed response, read-out: App. EC50, calculated from log-transformed viral titers (converted)
[12] = Vero cells, MOI 0.1, 48 h p.i., normal lighting, 50% reduction in viral titer, read-out: SARS-CoV-2 EC50

Oc1ccc(C#Cc2ccc3c4cccc5cccc(c6cccc2c63)c54)cc1 [Compound 3a, 4-(Perylen-3-ylethynyl)phenol]
ϕΔ(1O2), singlet oxygen generation quantum yield [1]: 0.422 | SI (SARS-CoV-2 [2]): >83 | EC50 (SARS-CoV-2 [2]; [11]): 1790 nM | EC50 (SARS-CoV-2 [2]; [12]): 120 nM | CC50 at 48 h [3]: > 10000 nM | EC50 (FIPV [4]): 196 nM | CC50 at 48 h [5]: > 10000 nM | Decrease in SARS-CoV-2 viral titer compared with control (SARS-CoV-2 [6]): more than two orders of magnitude | anti-FIPV activity under red light (FIPV [7]; dark room, all manipulations under red light (624 ± 20 nm), up to 10 µM): completely disappeared | anti-FIPV (virus inactivation) activity after blue-light irradiation (FIPV [7]; mixed in daylight, blue light 465–480 nm, 30 mW/cm^2, 10 min, versus non-irradiated sample): significant increase in anti-FIPV activity | FIPV-inactivation activity in the non-irradiated sample (FIPV [7]; mixed in daylight, incubated in the dark 10 min, then 1 h at 37 °C): some FIPV-inactivation activity | Maximal steady-state fluorescence intensity on liposome penetration [8]: about 4 × 10^5 CPE | Cytotoxicity or morphological abnormalities in PS cells (PS cells): no signs of cytotoxicity or morphological abnormalities

Oc1cccc(C#Cc2ccc3c4cccc5cccc(c6cccc2c63)c54)c1 [Compound 3b, 3-(Perylen-3-ylethynyl)phenol]
ϕΔ(1O2), singlet oxygen generation quantum yield [1]: 0.451 | SI (SARS-CoV-2 [2]): >196 | EC50 (SARS-CoV-2 [2]; [11]): 506 nM | EC50 (SARS-CoV-2 [2]; [12]): 51.1 nM | CC50 at 48 h [3]: > 10000 nM | viability at 48 h [9]: > 100%

Oc1ccc(C#Cc2ccc3c4cccc5cccc(c6cccc2c63)c54)cc1Br [Compound 3c, 4-(Perylen-3-ylethynyl)-2-bromophenol]
ϕΔ(1O2), singlet oxygen generation quantum yield [1]: 0.282 | SI (SARS-CoV-2 [2]): >44 | EC50 (SARS-CoV-2 [2]; [11]): 1100 nM | EC50 (SARS-CoV-2 [2]; [12]): 227 nM | CC50 at 48 h [3]: > 10000 nM

Oc1ccc(C#Cc2cc3cccc4c5cccc6cccc(c(c2)c34)c65)cc1 [Compound 3d, 4-(Perylen-2-ylethynyl)phenol]
ϕΔ(1O2), singlet oxygen generation quantum yield [1]: 0.297 | SI (SARS-CoV-2 [2]): >16 | EC50 (SARS-CoV-2 [2]; [11]): 2220 nM | EC50 (SARS-CoV-2 [2]; [12]): 614 nM | CC50 at 48 h [3]: > 10000 nM

Oc1cccc(C#Cc2cc3cccc4c5cccc6cccc(c(c2)c34)c65)c1 [Compound 3e, 3-(Perylen-2-ylethynyl)phenol]
ϕΔ(1O2), singlet oxygen generation quantum yield [1]: 0.460 | SI (SARS-CoV-2 [2]): >29 | EC50 (SARS-CoV-2 [2]; [11]): 1580 nM | EC50 (SARS-CoV-2 [2]; [12]): 347 nM | CC50 at 48 h [3]: > 10000 nM | viability at 48 h [9]: > 100%

Oc1ccc(C#Cc2cc3cccc4c5cccc6cccc(c(c2)c34)c65)cc1Br [Compound 3f, 4-(Perylen-2-ylethynyl)-2-bromophenol]
ϕΔ(1O2), singlet oxygen generation quantum yield [1]: 0.332 | SI (SARS-CoV-2 [2]): >19 | EC50 (SARS-CoV-2 [2]; [11]): 2680 nM | EC50 (SARS-CoV-2 [2]; [12]): 529 nM | CC50 at 48 h [3]: > 10000 nM

O=C(O)c1ccc(-c2ccc3c4cccc5cccc(c6cccc2c63)c54)s1 [Compound C1T11]
φΔ0, singlet oxygen generation quantum yield of the reference PS [10]: 0.59
